Experiments:
Format in all cases: in vivo
[1] = tested on: adult cat fleas (Ctenocephalides felis); test: Ctenocephalides felis in-vitro contact test, adult cat flea; conditions: Ctenocephalides felis; 1 μg/cm^2 (=100 g/ha), after 48 hours; read-out: efficacy (fleas dead or moribund)
Method: Ctenocephalides Felis—In-Vitro Contact Tests Adult Cat Flea
(§1) 9 mg compound is solved in 1 mL acetone and diluted with acetone to the desired concentration. 250 μL of the test solution is filled in 25 mL glass test tubes and homogeneously distributed on the inner walls by rotation and tilting on a shaking device (2 h at 30 rpm). With a compound concentration of 900 ppm, an inner surface of 44.7 cm^2 and a homogeneous distribution, a dose of 5 μg/cm^2 is achieved.
After the solvent has evaporated, each test tube is filled with 5-10 adult cat fleas (Ctenocephalides felis), closed with a perforated lid and incubated in a lying position at room temperature and relative humidity. After 48 hours efficacy is determined. The fleas are patted on the ground of the tubes and are incubated on a heating plate at 45-50° C. for at most 5 minutes. Immotile or uncoordinated moving fleas, which are not able to escape the heat by climbing upwards, are marked as dead or moribund.
An efficacy of 100% means all fleas are dead or moribund; 0% means no fleas are dead or moribund.

[2] = tested on: Rhipicephalus (Boophilus) microplus larvae (strain Parkhurst, resistant against synthetic pyrethroids); test: Rhipicephalus (Boophilus) microplus in-vitro contact test, larval cattle tick; conditions: 1 μg/cm^2 (=100 g/ha), after 48 hours; for pest or weed control at 1 µg/cm2: Rhipicephalus microplus, read-out: efficacy (larvae dead or moribund)
Method: Rhipicephalus (Boophilus) Microplus—In-Vitro Contact Tests Larval Cattle Tick (Strain Parkhurst, Resistant Against Synthetic Pyrethroids
as §1
After the solvent has evaporated, each test tube is filled with 20-50 cattle tick larvae (Rhipicephalus microplus), closed with a perforated lid and incubated in a horizontal position at 85% relative humidity and 27° C. in an incubator. After 48 hours efficacy is determined. The larvae are patted on the ground of the tubes and negative geotactic behavior is recorded.

[3] = tested on: fall armyworm larvae (Spodoptera frugiperda); test: Spodoptera frugiperda spray test (SPODFR); conditions: 168 h; for mortality at 100 g/ha: in Zea mays
Method: Spodoptera frugiperda—Spray Test
(§2) Solvent: 78.0 parts by weight acetone • 1.5 parts by weight dimethylformamide
(§3) Emulsifier: alkylarylpolyglycol ether
(§4) To produce a suitable preparation of active compound, 1 part by weight of active compound is mixed with the stated amount of solvents and is diluted with water, containing an emulsifier concentration of 1000 ppm, to the desired concentration. Further test concentrations are prepared by dilution with emulsifier containing water.
Maize (Zea mays) leaf sections are sprayed with a preparation of the active ingredient of the desired concentration. Once dry, the leaf sections are infested with fall armyworm larvae (Spodoptera frugiperda).
After 7 days mortality in % is determined. 100% means all caterpillars have been killed and 0% means none of the caterpillars have been killed.
Spodoptera frugiperda—Spray Test (SPODFR
After the specified period of time, mortality in % is determined. 100% means all caterpillars have been killed and 0% means none of the caterpillars have been killed.

[4] = tested on: adult brown dog ticks (Rhipicephalus sanguineus); test: Rhipicephalus sanguineus in-vitro contact test, adult brown dog ticks; conditions: Rhipicephalus sanguineus; 1 μg/cm^2 (=100 g/ha), after 48 hours; read-out: efficacy (ticks dead or moribund)
Method: Rhipicephalus sanguineus—In-Vitro Contact Tests with Adult Brown Dog Ticks
as §1
After the solvent has evaporated, each test tube is filled with 5-10 adult brown dog ticks (Rhipicephalus sanguineus), closed with a perforated lid and incubated in a lying position at room temperature and relative humidity. After 48 hours efficacy is determined. The ticks are patted on the ground of the tubes and are incubated on a heating plate at 45-50° C. for at most 5 minutes. Immotile or uncoordinated moving ticks, which are not able to escape the heat by climbing upwards, are marked as dead or moribund.
An efficacy of 100% means all ticks are dead or moribund; 0% means no ticks are dead or moribund.

[5] = tested on: larvae of the southern green stink bug (Nezara viridula); test: Nezara viridula spray test; conditions: for mortality at 500 g/ha: Nezara viridula, in Hordeum vulgare, 96 h; for mortality: 500 g/ha, barley plants, after 4 days
Method: Nezara viridula—Spray Test
(§5) Solvent: 78.0 parts by weight of acetone • • 1.5 parts by weight of dimethylformamide
as §3
(§6) To produce a suitable preparation of active compound, 1 part by weight of active compound is mixed with the stated amount of solvent, and the concentrate is diluted with water, containing an emulsifier concentration of 1000 ppm, to the desired concentration. Further test concentrations are prepared by dilution with emulsifier containing water.
Barley plants (Hordeum vulgare) are sprayed with a test solution containing the desired concentration of the active ingredient and are infested with larvae of the southern green stink bug (Nezara viridula).
After 4 days mortality in % is determined. 100% means all the stink bugs have been killed; 0% means none of the stink bugs have been killed.

[6] = tested on: larvae of the banded cucumber beetle (Diabrotica balteata); test: Diabrotica balteata spray test; conditions: 100 g/ha (=32 μg/well), wheat seeds, after 7 days; for pest or weed control at 32 µg/disc, 100 g/ha: Diabrotica balteata, 168 h, read-out: efficacy (seedlings grown)
Method: Diabrotica balteata—Spray Test
as §5, §3, §6
Soaked wheat seeds (Triticum aestivum) are placed in a multiple well plate filled with agar and some water and are incubated for 1 day to germinate (5 seeds per well). The germinated wheat seeds are sprayed with a test solution containing the desired concentration of the active ingredient. Afterwards each unit is infected with 10-20 larvae of the banded cucumber beetle (Diabrotica balteata).
After 7 days efficacy in % is determined. 100% means all the seedlings have grown up like in the untreated, uninfected control; 0% means none of the seedlings have grown.

[7] = tested on: brown planthopper (Nilaparvata lugens); test: Nilaparvata lugens spray test; conditions: for mortality at 500 g/ha: Nilaparvata lugens, in Oryza sativa, 96 h; for mortality: 500 g/ha, rice plants, after 4 days
Method: Nilaparvata lugens—Spray Test
as §5, §3, §4
Rice plants (Oryza sativa) are sprayed with a preparation of the active ingredient of the desired concentration and the plants are infested with the brown planthopper (Nilaparvata lugens).
After 4 days mortality in % is determined. 100% means all planthoppers have been killed and 0% means none of the planthoppers have been killed.

[8] = tested on: green peach aphid (Myzus persicae); test: Myzus persicae spray test (MYZUPE); conditions: 120 h; for mortality at 100 g/ha: in Brassica rapa, foliar
Method: Myzus persicae—Spray Test
as §2, §3, §4
Chinese cabbage (Brassica pekinensis) leaf disks infected with all instars of the green peach aphid (Myzus persicae), are sprayed with a preparation of the active ingredient of the desired concentration.
After 5 days mortality in % is determined. 100% means all aphids have been killed and 0% means none of the aphids have been killed.
Myzus persicae—Spray Test (MYZUPE
After the specified period of time, mortality in % is determined. 100% means all aphids have been killed and 0% means none of the aphids have been killed.

Compound | pest or weed control at 1 µg/cm2 [1] | pest or weed control at 1 µg/cm2 [2] | mortality at 100 g/ha [3] | pest or weed control at 1 µg/cm2, 100 g/ha [4] | mortality at 500 g/ha [5] | pest or weed control at 32 µg/disc, 100 g/ha [6] | other results
C[C@H](NC(=O)c1cc(OC(F)(F)F)cc(OC(F)(F)F)c1)c1ncnn1-c1cnc(C(N)=O)cn1 [Example I-029] | 100% | 100% | 100% | 100% | – | – | –
Cc1nc([C@H](C)NC(=O)c2cc(OC(F)(F)F)cc(OC(F)(F)F)c2)n(-c2cnc(C(N)=O)cn2)n1 [Example I-033] | – | – | 100% | – | 100% | 100% | –
Cc1nc([C@H](C)NC(=O)c2cc(C(F)(F)F)cc(S(C)(=O)=O)c2)n(-c2cnc(C(N)=O)cn2)n1 [Example I-051] | – | – | – | – | – | – | mortality [5]: 90%; efficacy (larvae dead or moribund) [2]: 100%
C[C@H](NC(=O)c1cc(OC(F)(F)F)cc(OC(F)(F)F)c1)c1ncnn1-c1cnc(C(=O)N(C)C2CC2)cn1 [Example I-026] | 100% | 100% | 100% | 100% | 100% | 100% | mortality at 500 g/ha [7]: 100%
C[C@H](NC(=O)c1cc(OC(F)(F)F)cc(C2(C#N)CC2)c1)c1nc(C2CC2)nn1-c1cnc(C(N)=O)cn1 [Example I-072] | – | – | – | – | – | – | mortality [7]: 90%; mortality [5]: 90%; efficacy (seedlings grown) [6]: 100%
CNC(=O)c1cnc(-n2nc(C)nc2[C@H](C)NC(=O)c2cc(C(F)(F)F)cc(C(F)(F)F)c2)cn1 [Example I-011] | 100% | 100% | 100% | 100% | 100% | – | mortality at 100 g/ha [8]: 90%
Cc1nc([C@H](C)NC(=O)c2cc(OC(F)(F)F)cc(C3CC3)c2)n(-c2cnc(C(=O)N(C)C3CC3)cn2)n1 [Example I-032, N-Cyclopropyl-5-(5-{(1S)-1-[3-cyclopropyl-5-(trifluoromethoxy)benzamido]ethyl}-3-methyl-1H-1,2,4-triazol-1-yl)-N-methylpyrazine-2-carboxamide] | 100% | 100% | 100% | 80% | – | – | mortality at 500 g/ha [7]: 100%; mortality at 100 g/ha [8]: 90%
C[C@H](NC(=O)c1cc(OC(F)(F)F)cc(S(C)(=O)=O)c1)c1ncnn1-c1cnc(C(=O)NC2CC2)cn1 [Example I-020] | – | 100% | – | – | 100% | 100% | mortality at 500 g/ha [7]: 100%; mortality at 100 g/ha [8]: 100%
Cc1nc([C@H](C)NC(=O)c2cc(F)cc(OC(F)(F)F)c2)n(-c2cnc(C(N)=O)cn2)n1 [Example I-069] | – | – | – | – | – | – | mortality [7]: 90%
C[C@H](NC(=O)c1cc(F)cc(OC(F)(F)F)c1)c1ncnn1-c1cnc(C(N)=O)cn1 [Example I-068] | – | – | – | – | – | – | mortality [5]: 90%
Cc1nc([C@H](C)NC(=O)c2cc(OC(F)(F)F)cc(OC(F)(F)F)c2)n(-c2cnc(C(=O)N(C)C3CC3)cn2)n1 [Example I-031] | 80% | 100% | 100% | – | – | – | mortality at 500 g/ha [7]: 90%
C[C@H](NC(=O)c1cc(C(F)F)nc(C(F)F)c1)c1nc(C2CC2)nn1-c1cnc(C(N)=O)cn1 [Example I-094, 5-[5-[(1S)-1-[[2,6-bis(difluoromethyl)pyridine-4-carbonyl]amino]ethyl]-3-cyclopropyl-1,2,4-triazol-1-yl]pyrazine-2-carboxamide] | – | – | 83% | – | 100% | 100% | –
C[C@H](NC(=O)c1cc(C(F)F)cc(C(F)F)c1)c1nc(C2CC2)nn1-c1cnc(C(N)=O)cn1 [Example I-071] | – | – | – | – | – | – | mortality [7]: 90%; mortality [5]: 90%; efficacy (seedlings grown) [6]: 100%
C[C@H](NC(=O)c1cc(OC(F)(F)F)cc(S(C)(=O)=O)c1)c1ncnn1-c1cnc(C(N)=O)cn1 [Example I-028] | – | 90% | 100% | – | 100% | 100% | mortality at 100 g/ha [8]: 90%
CNC(=O)c1cnc(-n2nc(C)nc2[C@H](C)NC(=O)c2cc(OC(F)(F)F)cc(OC(F)(F)F)c2)cn1 [Example I-034] | – | 100% | 100% | 80% | 100% | 80% | –
C=C(CC)c1ccc(C2C=CC=C2[C@H](C)CC(=C)c2cc(C)cc(C(C)(C)C)c2)cc1 (stereo partly shown) [I-038 Known from WO2019206799, reference compound] | – | – | – | – | – | – | Emax at 4 g/ha ([8]; MYZUPE, 4 g ai/ha, 5 dat, read-out: % Efficacy): 0%; Emax at 20 g/ha ([8]; MYZUPE, 20 g ai/ha, 5 dat, read-out: % Efficacy): 70%; Emax at 100 g/ha ([8]; MYZUPE, 100 g ai/ha, 5 dat, read-out: % Efficacy): 100%; Emax at 4 g/ha ([3]; SPODFR, 4 g ai/ha, 7 dat, read-out: % Efficacy): 0%; Emax at 20 g/ha ([3]; SPODFR, 20 g ai/ha, 7 dat, read-out: % Efficacy): 100%; Emax at 100 g/ha ([3]; SPODFR, 100 g ai/ha, 7 dat, read-out: % Efficacy): 100%
